# Reference: patent US7973075B2, “Kainate receptor-selective epimeric analogs of dysiherbaine” (priority 2007, dated 2011)
# Read-outs that look alike come from different tables or passages of the source.
# How the values were obtained:
# Type in all cases: binding
# GluR5 = biological target: T1, GluR5 (Rattus norvegicus, UniProt P22756); assay: Radioligand displacement ([3H]kainate), Example 1
# T1 construct: expressed in transfected cells; HEK 293 (patch clamp)
# Experimental: (§1) Dysiherbaine (DH) was used as a template for generating novel KAR ligands. (See FIG. 1.) These included 8-deoxy and 9-deoxy analogs of neodysiherbaine (neoDH). (See FIG. 2.) The binding of these analogs to glutamate receptors was assessed by radioligand binding as follows. Membrane preparations from COS-7 or HEK-T/17 cells were isolated 2-3 days after transfection. Displacement assays were performed as described previously (Swanson et al., NEURON 1997; 19:913-26). Unlabeled marine toxin analogs were used to displace [^3H]kainate or [^3H]AMPA (PerkinElmer) from kainate and AMPA receptors, respectively. (See FIG. 2 and Table 1.)
# (§2) Non-specific binding was defined in the presence of 1 mM glutamate. The effect of these analogs on electrophysiology was assessed as follows. HEK 293 cells were transfected with receptor cDNAs in combination with eGFP cDNA. Patch-clamp recordings from transfected cells were made 24-72 hours later using a fast application system described previously (Swanson et al., NEURON 1997; 19:913-26). (See FIG. 3.)
# (§3) Additional epimer analogs were generated. These included 4-epi-neodysiherbaine, 8-epi-neodysiherbaine, 9-epi-neodysiherbaine, and 8,9-epi-neodysiherbaine. (See FIG. 4.) The binding of these analogs to glutamate receptors was assessed by radioligand binding as described above. (See FIG. 4 and Table 2.)
# GluR6 = biological target: T2, GluR6 (Rattus norvegicus, UniProt P42260); assay: Radioligand displacement ([3H]kainate), Example 1
# T2 construct: expressed in transfected cells; HEK 293 (patch clamp)
# T2 sequence (P42260 32-908): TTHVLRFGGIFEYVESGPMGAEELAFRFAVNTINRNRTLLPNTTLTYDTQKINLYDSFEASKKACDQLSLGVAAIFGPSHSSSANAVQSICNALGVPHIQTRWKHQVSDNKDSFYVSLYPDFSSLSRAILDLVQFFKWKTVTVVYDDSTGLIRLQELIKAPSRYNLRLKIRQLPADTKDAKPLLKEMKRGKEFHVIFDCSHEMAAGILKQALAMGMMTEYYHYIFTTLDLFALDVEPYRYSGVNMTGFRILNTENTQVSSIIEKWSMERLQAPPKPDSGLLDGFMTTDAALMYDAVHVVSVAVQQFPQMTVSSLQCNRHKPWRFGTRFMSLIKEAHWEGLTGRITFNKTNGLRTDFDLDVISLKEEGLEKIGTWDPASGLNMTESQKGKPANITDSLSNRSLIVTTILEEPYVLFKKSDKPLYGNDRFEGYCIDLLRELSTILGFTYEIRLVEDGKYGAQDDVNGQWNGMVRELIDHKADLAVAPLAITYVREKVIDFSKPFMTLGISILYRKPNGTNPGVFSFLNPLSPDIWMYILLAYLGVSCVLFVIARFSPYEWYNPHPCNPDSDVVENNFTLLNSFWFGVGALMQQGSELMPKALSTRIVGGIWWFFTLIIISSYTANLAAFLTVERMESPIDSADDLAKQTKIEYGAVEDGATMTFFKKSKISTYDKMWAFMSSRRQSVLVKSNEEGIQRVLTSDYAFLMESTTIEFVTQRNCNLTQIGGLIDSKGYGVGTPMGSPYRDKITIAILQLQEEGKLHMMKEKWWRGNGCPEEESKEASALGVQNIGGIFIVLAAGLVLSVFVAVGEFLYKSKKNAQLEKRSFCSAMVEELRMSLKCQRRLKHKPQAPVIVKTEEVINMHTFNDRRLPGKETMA
# Experimental: as §1, §2, §3
# GluR7 = biological target: T3, GluR7 (Rattus norvegicus, UniProt P42264); assay: Radioligand displacement ([3H]kainate), Example 1
# T3 construct: expressed in transfected cells; host or cells: COS-7 or HEK-T/17
# T3 sequence (P42264 32-919): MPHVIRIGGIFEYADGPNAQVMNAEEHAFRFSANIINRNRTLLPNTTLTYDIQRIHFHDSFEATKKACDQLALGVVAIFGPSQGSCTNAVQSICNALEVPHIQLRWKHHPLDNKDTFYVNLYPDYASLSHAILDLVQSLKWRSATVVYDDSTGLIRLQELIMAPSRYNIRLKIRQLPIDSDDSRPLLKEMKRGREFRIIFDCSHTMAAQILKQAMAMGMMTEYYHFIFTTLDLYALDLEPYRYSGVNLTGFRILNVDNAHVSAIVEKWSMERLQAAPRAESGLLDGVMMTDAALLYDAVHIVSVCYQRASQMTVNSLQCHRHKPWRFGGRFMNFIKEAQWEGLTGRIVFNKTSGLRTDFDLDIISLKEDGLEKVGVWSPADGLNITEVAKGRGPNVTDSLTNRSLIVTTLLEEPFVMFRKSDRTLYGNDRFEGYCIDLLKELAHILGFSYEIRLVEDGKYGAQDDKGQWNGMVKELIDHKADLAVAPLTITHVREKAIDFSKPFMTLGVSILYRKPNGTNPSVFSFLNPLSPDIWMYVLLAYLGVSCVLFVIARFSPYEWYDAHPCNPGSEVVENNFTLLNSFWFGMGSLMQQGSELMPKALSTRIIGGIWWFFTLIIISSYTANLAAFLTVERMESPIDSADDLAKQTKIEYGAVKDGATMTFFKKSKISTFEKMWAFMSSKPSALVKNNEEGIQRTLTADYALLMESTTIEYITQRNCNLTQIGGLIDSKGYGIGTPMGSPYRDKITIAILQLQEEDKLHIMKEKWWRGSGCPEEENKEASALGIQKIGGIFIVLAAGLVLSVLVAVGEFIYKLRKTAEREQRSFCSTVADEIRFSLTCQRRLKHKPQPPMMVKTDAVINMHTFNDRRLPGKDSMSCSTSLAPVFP
# Experimental: as §1, §2, §3
# KA2 = biological target: T4, KA2 (Rattus norvegicus, UniProt Q63273); assay: Radioligand displacement ([3H]kainate), Example 1
# T4 construct: expressed in transfected cells; host or cells: HEK-293-T/17
# T4 sequence (Q63273 15-979): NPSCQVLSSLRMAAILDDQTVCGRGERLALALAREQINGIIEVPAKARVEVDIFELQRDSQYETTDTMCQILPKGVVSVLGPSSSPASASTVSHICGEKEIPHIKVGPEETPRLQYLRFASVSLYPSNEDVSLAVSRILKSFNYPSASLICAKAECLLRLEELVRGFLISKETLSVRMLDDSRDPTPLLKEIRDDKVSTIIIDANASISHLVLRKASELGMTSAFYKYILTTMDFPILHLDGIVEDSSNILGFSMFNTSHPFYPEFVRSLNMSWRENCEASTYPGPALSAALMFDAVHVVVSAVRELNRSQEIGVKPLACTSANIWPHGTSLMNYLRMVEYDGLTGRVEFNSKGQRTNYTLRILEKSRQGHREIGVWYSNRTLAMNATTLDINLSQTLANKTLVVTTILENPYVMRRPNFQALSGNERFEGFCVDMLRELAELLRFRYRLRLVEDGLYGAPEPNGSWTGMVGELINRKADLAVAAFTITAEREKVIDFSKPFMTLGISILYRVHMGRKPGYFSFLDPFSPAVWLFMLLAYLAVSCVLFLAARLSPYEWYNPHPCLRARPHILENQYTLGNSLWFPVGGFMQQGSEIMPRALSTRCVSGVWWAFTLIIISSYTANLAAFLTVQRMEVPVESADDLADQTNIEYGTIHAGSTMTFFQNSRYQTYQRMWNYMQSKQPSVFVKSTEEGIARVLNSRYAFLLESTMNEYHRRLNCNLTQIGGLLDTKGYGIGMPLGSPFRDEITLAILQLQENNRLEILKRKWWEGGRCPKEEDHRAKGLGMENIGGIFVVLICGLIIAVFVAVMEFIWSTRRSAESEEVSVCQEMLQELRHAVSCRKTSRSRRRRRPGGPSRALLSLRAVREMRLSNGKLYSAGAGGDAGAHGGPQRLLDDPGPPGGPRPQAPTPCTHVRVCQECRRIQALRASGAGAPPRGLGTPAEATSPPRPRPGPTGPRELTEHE
# Experimental: as §1, §2, §3
# GluR1 = biological target: T5, GluR1 (Rattus norvegicus, UniProt P19490); assay: Radioligand displacement ([3H]AMPA), Example 1
# T5 construct: expressed in transfected cells; host or cells: COS-7 or HEK-T/17
# T5 sequence (P19490 19-907 isoform P19490-2 limits assumed): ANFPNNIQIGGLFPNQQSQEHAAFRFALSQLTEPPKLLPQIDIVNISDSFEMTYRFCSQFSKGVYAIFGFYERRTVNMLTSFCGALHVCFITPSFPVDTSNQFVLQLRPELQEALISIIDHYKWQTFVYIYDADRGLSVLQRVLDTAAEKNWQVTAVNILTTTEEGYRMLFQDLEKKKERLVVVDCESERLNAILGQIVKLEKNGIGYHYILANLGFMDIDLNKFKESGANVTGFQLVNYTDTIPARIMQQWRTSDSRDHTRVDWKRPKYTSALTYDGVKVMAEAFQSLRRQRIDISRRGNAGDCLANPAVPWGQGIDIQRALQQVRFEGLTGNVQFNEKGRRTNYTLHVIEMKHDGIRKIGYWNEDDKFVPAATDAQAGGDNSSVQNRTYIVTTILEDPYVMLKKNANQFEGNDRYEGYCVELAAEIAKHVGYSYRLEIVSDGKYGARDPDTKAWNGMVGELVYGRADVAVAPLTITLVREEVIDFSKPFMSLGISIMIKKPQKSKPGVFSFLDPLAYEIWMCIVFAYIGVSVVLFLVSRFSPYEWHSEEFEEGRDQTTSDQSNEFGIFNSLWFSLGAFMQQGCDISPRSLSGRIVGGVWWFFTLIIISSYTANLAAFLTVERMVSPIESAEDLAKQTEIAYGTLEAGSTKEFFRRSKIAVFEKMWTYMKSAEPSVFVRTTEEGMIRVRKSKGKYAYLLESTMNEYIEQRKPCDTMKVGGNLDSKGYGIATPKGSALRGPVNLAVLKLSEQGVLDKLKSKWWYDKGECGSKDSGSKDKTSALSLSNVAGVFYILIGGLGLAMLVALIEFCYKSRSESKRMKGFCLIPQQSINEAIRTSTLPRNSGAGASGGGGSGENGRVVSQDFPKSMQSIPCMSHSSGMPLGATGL
# Experimental: as §1, §2, §3
# GluR2 = biological target: T6, GluR2 (Rattus norvegicus, UniProt P19491); assay: Radioligand displacement ([3H]AMPA), Example 1
# T6 construct: expressed in transfected cells; host or cells: COS-7 or HEK-T/17
# T6 sequence (P19491 22-883 isoform P19491-2 limits assumed): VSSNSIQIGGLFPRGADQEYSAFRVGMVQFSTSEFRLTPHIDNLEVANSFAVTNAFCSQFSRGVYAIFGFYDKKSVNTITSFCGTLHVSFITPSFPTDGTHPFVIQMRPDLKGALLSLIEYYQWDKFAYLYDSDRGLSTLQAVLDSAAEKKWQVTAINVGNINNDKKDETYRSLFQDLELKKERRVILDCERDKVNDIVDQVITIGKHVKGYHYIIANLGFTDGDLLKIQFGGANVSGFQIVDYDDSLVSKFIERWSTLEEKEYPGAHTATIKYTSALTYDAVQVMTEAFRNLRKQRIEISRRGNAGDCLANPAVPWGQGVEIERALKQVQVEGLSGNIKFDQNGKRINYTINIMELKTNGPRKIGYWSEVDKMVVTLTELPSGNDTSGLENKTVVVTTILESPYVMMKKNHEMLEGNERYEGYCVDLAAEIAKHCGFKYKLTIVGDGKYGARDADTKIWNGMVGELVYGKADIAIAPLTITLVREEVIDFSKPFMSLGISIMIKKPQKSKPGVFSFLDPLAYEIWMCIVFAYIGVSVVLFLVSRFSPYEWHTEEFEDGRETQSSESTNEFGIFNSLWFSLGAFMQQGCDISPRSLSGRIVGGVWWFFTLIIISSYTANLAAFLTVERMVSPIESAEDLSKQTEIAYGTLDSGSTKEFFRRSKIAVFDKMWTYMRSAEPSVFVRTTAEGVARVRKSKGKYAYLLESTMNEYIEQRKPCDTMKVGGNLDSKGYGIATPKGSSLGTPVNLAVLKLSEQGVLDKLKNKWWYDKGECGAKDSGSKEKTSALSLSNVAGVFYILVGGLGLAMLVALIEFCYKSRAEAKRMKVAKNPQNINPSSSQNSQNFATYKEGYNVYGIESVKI
# Experimental: as §1, §2, §3
# [1] = Tables 1-2, read-out: GluR6 binding affinity (displacement of [3H]kainate)
# [2] = Tables 1-2, read-out: GluR7 binding affinity (displacement of [3H]kainate)
# [3] = Tables 1-2, read-out: KA2 binding affinity (displacement of [3H]kainate)
# [4] = Tables 1-2, read-out: GluR1 binding affinity (displacement of [3H]AMPA)
# [5] = Tables 1-2, read-out: GluR2 binding affinity (displacement of [3H]AMPA)
# [6] = Tables 1-2, membranes of transfected COS-7 or HEK-T/17 cells, read-out: GluR5 binding affinity (displacement of [3H]kainate)
# T1 sequence (P22756 with tags, fused parts or gaps isoform P22756-2): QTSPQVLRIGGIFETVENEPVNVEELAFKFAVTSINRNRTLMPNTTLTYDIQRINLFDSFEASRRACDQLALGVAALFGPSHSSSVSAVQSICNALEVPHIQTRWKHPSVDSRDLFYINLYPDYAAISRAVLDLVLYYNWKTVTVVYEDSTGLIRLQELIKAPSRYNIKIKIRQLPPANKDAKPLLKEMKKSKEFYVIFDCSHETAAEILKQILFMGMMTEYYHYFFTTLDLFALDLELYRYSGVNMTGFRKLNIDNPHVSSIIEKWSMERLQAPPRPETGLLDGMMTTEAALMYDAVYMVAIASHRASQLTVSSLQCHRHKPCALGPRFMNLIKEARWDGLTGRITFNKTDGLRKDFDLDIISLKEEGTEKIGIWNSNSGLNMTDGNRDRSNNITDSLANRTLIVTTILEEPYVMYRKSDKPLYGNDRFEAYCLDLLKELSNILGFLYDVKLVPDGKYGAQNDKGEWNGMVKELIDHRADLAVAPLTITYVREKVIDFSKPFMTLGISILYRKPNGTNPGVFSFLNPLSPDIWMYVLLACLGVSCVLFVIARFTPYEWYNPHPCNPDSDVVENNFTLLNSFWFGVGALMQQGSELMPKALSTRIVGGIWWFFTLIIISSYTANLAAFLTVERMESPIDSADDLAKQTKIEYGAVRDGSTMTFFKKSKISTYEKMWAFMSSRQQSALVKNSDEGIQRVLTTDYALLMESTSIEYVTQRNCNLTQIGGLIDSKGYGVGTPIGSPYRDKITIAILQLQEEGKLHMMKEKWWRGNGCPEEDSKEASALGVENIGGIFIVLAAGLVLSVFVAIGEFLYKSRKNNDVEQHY
compound,measurement,setting,value
"NC(CC1(C(=O)O)CC2OCC(O)C(O)C2O1)C(=O)O (stereo not drawn) [8,9-epi-neoDH, 8,9-epi-neodysiherbaine]",Ki,"GluR5; Table 2, read-out: GluR5 binding affinity (displacement of [3H]kainate)",48 µM
same,Ki,GluR6; [1],> 100 µM
same,Ki,GluR7; [2],> 100 µM
same,Ki,KA2; [3],>100 µM
same,Ki,GluR1; [4],> 100 µM
same,Ki,GluR2; [5],> 100 µM
"NC(CC1(C(=O)O)CC2OCC(O)C(O)C2O1)C(=O)O (stereo not drawn) [8-epi-neoDH, 8-epi-neodysiherbaine]",Ki,GluR5; [6],0.034 µM
same,Ki,GluR6; [1],22 µM
same,Ki,KA2; [3],>100 µM
same,Ki,GluR1; [4],17 µM
same,Ki,GluR2; [5],23 µM
N[C@@H](C[C@]1(C(=O)O)C[C@H]2OC[C@@H](O)C[C@H]2O1)C(=O)O [8-deoxy-neoDH],Ki,GluR5,0.0011 µM
same,Ki,GluR6,76 µM
same,Ki,GluR7,21 µM
same,Ki,KA2,36 µM
same,Ki,GluR1,> 100 µM
same,Ki,GluR2,> 100 µM
"NC(CC1(C(=O)O)CC2OCC(O)C(O)C2O1)C(=O)O (stereo not drawn) [9-epi-neoDH, 9-epi-neodysiherbaine]",Ki,GluR5; [6],0.296 µM
same,Ki,GluR6; [1],> 100 µM
same,Ki,GluR7; [2],> 100 µM
same,Ki,KA2; [3],>100 µM
same,Ki,GluR1; [4],> 100 µM
same,Ki,GluR2; [5],> 100 µM
N[C@@H](C[C@]1(C(=O)O)C[C@H]2OCC[C@@H](O)[C@H]2O1)C(=O)O [9-deoxy-neoDH],Ki,GluR5; [6],0.168 µM
same,Ki,GluR6; [1],> 100 µM
same,Ki,GluR7; [2],> 100 µM
same,Ki,KA2; [3],> 100 µM
same,Ki,GluR1; [4],> 100 µM
same,Ki,GluR2; [5],> 100 µM
